In brackets after ≈: the same amount, converted by molar mass. Activity calls are given as the source filed them. The calls are words filed in the database; no cut-off is given here.

Data set [1] deals with Acanthamoeba castellanii. In words: Anti-amoebic activity against Acanthamoeba castellanii genotype T4 (ATCC 50492) trophozoites infected in human HCT-116 cells assessed as protection against amoebae infection at 100 ug/ml amoebae pretreated with compound for 2 hrs followed by host cell infection and measured after 24 hrs by LDH assay. The data set is classed as functional, organism-based. The conditions noted are these: dose 100.0 µg/ml, time 26.0 hrs.

Data set [2] concerns HCT-116. The data set is described as follows: Cytotoxicity against human HCT-116 cells at 100 ug/ml incubated for 24 hrs by LDH assay. It is filed as toxicity, cell-based. To be noted: hct-116, 24 h, at 100 µg/mL.
Data set [3] deals with Acanthamoeba castellanii. The data set is described as follows: Anti-amoebic activity against Acanthamoeba castellanii genotype T4 (ATCC 50492) trophozoites assessed as reduction in encystation at 100 ug/ml incubated for 48 hrs by hemocytometer analysis. It is filed as functional, organism-based. To be noted: dose 100.0 µg/ml.
The subject of data set [4] is Acanthamoeba castellanii. In words: Anti-amoebic activity against Acanthamoeba castellanii genotype T4 (ATCC 50492) cysts assessed as reduction in excystation incubated for 24 to 72 hrs by hemocytometer analysis. It is filed as functional. To be noted: time 24-72 hrs.
Data set [5] relates to Acanthamoeba castellanii. In words: Anti-amoebic activity against Acanthamoeba castellanii genotype T4 (ATCC 50492) cysts assessed as reduction in excystation at 100 ug/ml incubated for 24 to 72 hrs by hemocytometer analysis. To be noted: time 24-72 hrs. It is filed as functional.
Data set [6] concerns Acanthamoeba castellanii. The data set is described as follows: Anti-amoebic activity against Acanthamoeba castellanii genotype T4 (ATCC 50492) trophozoites assessed as reduction in amoebae viability at 100 ug/ml incubated for 24 hrs by trypan blue exclusion test. It is filed as functional.
The test system of data set [7] is Acanthamoeba castellanii. The data set is described as follows: Anti-amoebic activity against Acanthamoeba castellanii genotype T4 (ATCC 50492) trophozoites assessed as reduction in amoebae viability incubated for 24 hrs by trypan blue exclusion test. It is filed as functional.
Data set [8] relates to HCT-116. In words: Cytotoxicity against human HCT-116 cells at 5X excystation MIC50 concentration incubated for 24 hrs by LDH assay. It is filed as toxicity, cell-based. The conditions noted are these: hct-116, 24 h.

Usually MIC50 stands for the lowest concentration that inhibits either 50% of growth or 50% of the strains tested, depending on the study. The inhibition is the change of the read-out against control, counted positive when it falls. On to `CC(C)(C)c1ccc(-c2nnc(SCc3cccc(C(F)(F)F)c3)n2-c2cccc(Cl)c2)cc1`, for which the result in data set [1] and in data set [3] was inactive. The same compound gave an Activity in data set [2] of 35%. The MIC50 was determined as 80.6 µg/mL (≈ 160 µM) in data set [4] and 144 µg/mL (≈ 287 µM) in data set [7]. For the same compound, the inhibition at 100 µg/mL in data set [5] amounted to 78%; in data set [6], 25%.

Consider `CC(C)(C)c1ccc(-c2nnc(SCc3cccc(C(F)(F)F)c3)n2-c2ccccc2)cc1`, for which the outcome in data set [1] and in data set [3] was inactive. For the same compound, the results for the MIC50 in data set [4] and in data set [7] were 85.5 µg/mL (≈ 183 µM) and 239 µg/mL (≈ 512 µM), respectively. For the same compound, the inhibition at 100 µg/mL in data set [5] worked out at 78%; in data set [6] it was 17%.

For `CC(C)c1ccc(-c2nnc(SCc3cccc(C(F)(F)F)c3)n2-c2cccc(Br)c2)cc1`, the outcome in data set [1] and in data set [3] was inactive. For the same compound, the MIC50 came to 32 µg/mL (≈ 60.1 µM) in data set [4] and 125 µg/mL (≈ 235 µM) in data set [7]. For the same compound, the inhibition at 100 µg/mL in data set [5] is 77%; in data set [6], 34%. In data set [8], this compound registered an Activity of 17%.

As for `Cc1ccc(-n2c(SCc3cccc(C(F)(F)F)c3)nnc2-c2ccc(C(C)(C)C)cc2)cc1`, the result in data set [1] and in data set [3] was inactive. Also, the Activity in data set [2] is reported as 35%. Further, the MIC50 in data set [4] came to 19.5 µg/mL (≈ 40.6 µM); in data set [7] it was 180 µg/mL (≈ 373 µM). The inhibition at 100 µg/mL in data set [5] was 86%; in data set [6] it was 27%.
